Where two headings read alike, the source gives them in different places.
Key:
[1] = system: non-selective sigma receptor; assay: σ radioligand binding assay ([3H]DTG); settings: inhibition of control specific binding; at 1µM (concentration printed only in head of Cpd A); rat cerebral cortex
[2] = molecular target: T1, human 5-HT2C receptor (Homo sapiens, UniProt P28335); assay: 5HT2c radioligand binding assay ([3H]mesulergine); settings: inhibition of control specific binding; at 1µM (concentration printed only in head of Cpd A); transfected CHO cells
T1 construct: expressed in transfected cells; host or cells: CHO cells
T1 sequence (P28335 33-458): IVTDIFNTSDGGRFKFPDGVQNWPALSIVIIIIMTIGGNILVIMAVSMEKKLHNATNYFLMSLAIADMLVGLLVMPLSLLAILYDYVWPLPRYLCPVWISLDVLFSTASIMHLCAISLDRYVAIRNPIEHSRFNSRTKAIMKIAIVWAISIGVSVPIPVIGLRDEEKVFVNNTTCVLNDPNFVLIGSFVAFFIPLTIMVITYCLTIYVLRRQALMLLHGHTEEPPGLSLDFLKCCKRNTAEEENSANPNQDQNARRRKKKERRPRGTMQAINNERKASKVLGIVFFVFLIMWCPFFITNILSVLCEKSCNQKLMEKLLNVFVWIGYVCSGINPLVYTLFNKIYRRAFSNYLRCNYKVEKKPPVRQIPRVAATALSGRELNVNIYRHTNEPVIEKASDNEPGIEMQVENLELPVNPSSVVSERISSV

[3] = molecular target: human dopamine D2S receptor (Homo sapiens, UniProt P14416); assay: D2 radioligand binding assay ([3H]spiperone); settings: read-out: %inhibition D2
Chain of human dopamine D2S receptor (P14416 1-414 isoform P14416-2): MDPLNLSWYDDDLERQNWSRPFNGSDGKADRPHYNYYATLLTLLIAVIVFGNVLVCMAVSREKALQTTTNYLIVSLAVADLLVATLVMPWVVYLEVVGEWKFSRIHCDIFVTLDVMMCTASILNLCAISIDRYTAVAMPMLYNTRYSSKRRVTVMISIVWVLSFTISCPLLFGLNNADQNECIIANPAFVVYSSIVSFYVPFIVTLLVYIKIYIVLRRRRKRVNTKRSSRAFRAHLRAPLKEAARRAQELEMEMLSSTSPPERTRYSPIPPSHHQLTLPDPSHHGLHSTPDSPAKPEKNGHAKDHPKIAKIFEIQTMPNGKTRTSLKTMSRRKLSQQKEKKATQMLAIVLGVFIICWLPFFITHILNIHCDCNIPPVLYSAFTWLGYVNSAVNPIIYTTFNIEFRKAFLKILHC

[4] = molecular target: T2, human 5-HT2A receptor (Homo sapiens, UniProt P28223); assay: 5HT2a radioligand binding assay ([3H]ketanserin); settings: inhibition of control specific binding; at 1µM (concentration printed only in head of Cpd A); human recombinant
T2 construct: expressed in transfected cells; host or cells: HEK-293 cells
T2 sequence (P28223 whole entry): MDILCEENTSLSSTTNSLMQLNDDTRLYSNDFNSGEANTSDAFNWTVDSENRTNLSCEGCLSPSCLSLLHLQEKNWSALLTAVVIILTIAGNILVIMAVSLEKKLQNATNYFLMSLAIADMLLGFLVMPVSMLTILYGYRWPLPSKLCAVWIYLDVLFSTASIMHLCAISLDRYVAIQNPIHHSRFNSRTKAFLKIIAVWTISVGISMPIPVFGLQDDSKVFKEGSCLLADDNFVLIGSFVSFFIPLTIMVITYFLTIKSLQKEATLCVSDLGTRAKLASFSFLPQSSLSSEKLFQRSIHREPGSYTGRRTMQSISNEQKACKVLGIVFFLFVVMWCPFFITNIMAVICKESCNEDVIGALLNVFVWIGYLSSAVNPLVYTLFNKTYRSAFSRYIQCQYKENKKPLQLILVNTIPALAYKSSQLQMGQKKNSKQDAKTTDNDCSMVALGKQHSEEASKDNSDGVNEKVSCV

[5] = molecular target: human 5-HT6 receptor (Homo sapiens, UniProt P50406); assay: 5HT6 radioligand binding assay ([3H] LSD); settings: read-out: %inhibition 5HT6
Chain of human 5-HT6 receptor (P50406 whole entry): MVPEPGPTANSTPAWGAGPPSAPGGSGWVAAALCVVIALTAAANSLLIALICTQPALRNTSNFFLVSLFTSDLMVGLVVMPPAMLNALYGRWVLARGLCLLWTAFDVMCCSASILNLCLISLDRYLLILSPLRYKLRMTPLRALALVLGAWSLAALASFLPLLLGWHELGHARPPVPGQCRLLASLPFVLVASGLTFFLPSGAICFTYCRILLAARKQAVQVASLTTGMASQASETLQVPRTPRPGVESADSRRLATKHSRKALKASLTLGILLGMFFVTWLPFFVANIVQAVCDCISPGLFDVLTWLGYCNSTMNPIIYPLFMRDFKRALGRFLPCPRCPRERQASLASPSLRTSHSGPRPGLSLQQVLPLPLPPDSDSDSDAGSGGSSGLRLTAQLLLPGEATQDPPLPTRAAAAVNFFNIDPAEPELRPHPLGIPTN
Description: 5HT6 ASSAY : Evaluation of the affinity of compounds for the human 5-HT6 receptor in transfected HEK 293 cells determined in a radioligand binding assay. Cell membrane homogenates (15-20 µg protein) were incubated for 60 min at 37°C with 2 nM [^3H] LSD in the absence or presence of the test compound in a buffer containing 50 mM Tris-HCl (pH 7.4), 10 mM MgCl2 and 0.5 mM EDTA. Nonspecific binding was determined in the presence of 100 µM 5-HT. Following incubation, the samples were filtered rapidly under vacuum through glass fiber filters (GF/B, Packard) presoaked with 0.3% PEI and rinsed several times with ice-cold 50 mM Tris-HCl using a 96-sample cell harvester (Unifilter, Packard). The filters were dried then counted for radioactivity in a scintillation counter (Topcount, Packard) using a scintillation cocktail (Microscint 0, Packard).
The specific ligand binding to the receptor is defined as the difference between the total binding and the non specific binding determined in the presence of an excess of unlabelled ligand. The results are expressed as a percentage of control specific binding and as a percentage inhibition of control specific binding obtained in the presence of the compounds.

[6] = molecular target: human dopamine D3 receptor (Homo sapiens, UniProt P35462); assay: D3 radioligand binding assay ([3H]spiperone); settings: read-out: %inhibition D3
Chain of human dopamine D3 receptor (P35462 whole entry): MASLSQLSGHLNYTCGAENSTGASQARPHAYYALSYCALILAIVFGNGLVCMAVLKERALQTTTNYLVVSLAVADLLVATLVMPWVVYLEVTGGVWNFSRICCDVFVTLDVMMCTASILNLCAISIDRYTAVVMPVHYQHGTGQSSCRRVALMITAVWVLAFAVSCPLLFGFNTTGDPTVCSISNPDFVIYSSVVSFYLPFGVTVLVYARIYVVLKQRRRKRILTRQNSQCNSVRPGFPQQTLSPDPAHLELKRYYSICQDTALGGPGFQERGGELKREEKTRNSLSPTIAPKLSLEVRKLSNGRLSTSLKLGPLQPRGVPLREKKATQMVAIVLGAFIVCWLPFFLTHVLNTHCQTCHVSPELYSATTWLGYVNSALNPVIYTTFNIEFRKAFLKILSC
Description: Nonspecific binding was determined in the presence of 10 µM (+)butaclamol. Following incubation, the samples were filtered rapidly under vacuum through glass fiber filters (GF/B, Packard) presoaked with 0.3% PEI and rinsed several times with ice-cold 50 mM Tris-HCl using a 96-sample cell harvester (Unifilter, Packard). The filters were dried then counted for radioactivity in a scintillation counter (Topcount, Packard) using a scintillation cocktail (Microscint 0, Packard). The specific ligand binding to the receptor is defined as the difference between the total binding and the non specific binding determined in the presence of an excess of unlabelled ligand. The results are expressed as a percentage of control specific binding and as a percentage inhibition of control specific binding obtained in the presence of the compounds.

[7] = inhibition of control specific binding, at 1µM (concentration printed only in head of Cpd A), transfected CHO cells

Row | SMILES | %inhibition σ [1] [%] | inhibition at 1 µM [2] [%] | inhibition at 1 µM [3] [%] | inhibition at 1 µM [4] [%] | inhibition at 1 µM [5] [%] | inhibition at 1 µM [6] [%] | inhibition at 1 µM [3, 7] [%] | inhibition at 1 µM [6, 7] [%]
1 | CN(C)CCO[C@@]1(c2ccccc2)C[C@@H]2CC[C@@]1(C)C2(C)C [Cpd A, (1S,2R,4S)-(+)-2-[N,N-(dimethylaminoethoxy)]-2-phenyl-1,7,7-trimethyl-bicyclo[2.2.1]heptane] | 56 | 79 | 29 | 93 | 44 | 32 |  | 
2 | CNCCO[C@@]1(c2ccccc2)C[C@@H]2CC[C@@]1(C)C2(C)C [Cpd C, (1S,2R,4S)-(+)-2-methylaminoethoxy-2-phenyl-1,7,7-trimethyl-bicyclo[2.2.1]heptane] |  | 65 |  | 89 | 36 |  | 10 | 24
3 | CN(C)CCO[C@]1(c2ccccc2)C[C@H]2CC[C@]1(C)C2(C)C [Cpd B, (1R,2S,4R)-(-)-2-[N,N-(dimethylaminoethoxy)]-2-phenyl-1,7,7-trimethyl-bicyclo[2.2.1]heptane] | 72 | 99 | 74 | 99 | 88 | 89 |  | 
4 | CNCCO[C@]1(c2ccccc2)C[C@H]2CC[C@]1(C)C2(C)C [Cpd D, (1R,2S,4R)-(-)-2-methylaminoethoxy-2-phenyl-1,7,7-trimethyl-bicyclo[2.2.1]heptane] |  | 97 |  | 98 | 89 |  | 57 | 81

Source: patent EP1500391A1, “Therapeutic use of bicycloheptane derivatives” (NEURO3D, priority 2003, dated 2005)
